Measurements as given in ChEMBL document CHEMBL1158906, “Biological Activities of Avarol Derivatives, 1. Amino Derivatives” (J Nat Prod, 1990).
Values after ≈ are worked out from the molar mass of the structure shown.

What was measured:
[1] = test system: Artemia; assay: Toxicity against brine shrimp; type: organism-based; settings: in vivo
[2] = test system: Agrobacterium tumefaciens; assay: Antitumor activity assessed as inhibition of Agrobacterium tumefaciens B6-induced tumor formation after 12 days by potato disk assay; type: functional
[3] = test system: Staphylococcus aureus; assay: Antimicrobial activity against Staphylococcus aureus ATCC 25293 by serial dilution method; type: functional

SMILES | LC50 [1] | inhibition (INH) [2] | MIC [3]
CC1=CCC[C@H]2[C@](C)(Cc3cc(=O)c4[nH]c5ncnc6ncn(c=4c3=O)c65)[C@@H](C)CC[C@]12C | 70.2 ppm | 27% | 12.5 µg/mL (≈ 28.2 µM)
CC1=CCC[C@H]2[C@](C)(CC3=CC(=O)C=CC3=O)[C@@H](C)CC[C@]12C [AVARONE] | 0.14 ppm | 63% | 1.56 µg/mL (≈ 4.99 µM)
CCNC1=CC(=O)C=C(C[C@]2(C)[C@@H](C)CC[C@]3(C)C(C)=CCC[C@@H]23)C1=O | 0.81 ppm | 54% | > 100 µg/mL
CC1=CCC[C@H]2[C@](C)(CC3=CC(=O)C(N[C@@H](C)C(=O)O)=CC3=O)[C@@H](C)CC[C@]12C | 2 ppm | 38% | 6.25 µg/mL (≈ 15.6 µM)
CC1=CCC[C@H]2[C@](C)(CC3=CC(=O)C=C(N)C3=O)[C@@H](C)CC[C@]12C | 0.24 ppm | 53% | 50 µg/mL (≈ 153 µM)
CNC1=CC(=O)C(C[C@]2(C)[C@@H](C)CC[C@]3(C)C(C)=CCC[C@@H]23)=CC1=O | 0.34 ppm | 57% | > 100 µg/mL
CC1(C)S[C@@H]2[C@H](NC(=O)Cc3ccccc3)C(=O)N2[C@H]1C(=O)[O-].[Na+] [PENICILLIN G SODIUM] | – | – | 0.04 µg/mL
CC1=CCC[C@H]2[C@](C)(CC3=CC(=O)C(N)=CC3=O)[C@@H](C)CC[C@]12C | 0.23 ppm | 55% | 50 µg/mL (≈ 153 µM)
CCNC1=CC(=O)C(C[C@]2(C)[C@@H](C)CC[C@]3(C)C(C)=CCC[C@@H]23)=CC1=O | 0.27 ppm | 38% | > 100 µg/mL
CC1=CCC[C@H]2[C@](C)(CC3=CC(=O)C(N[C@@H]4[C@@H](O)[C@H](O)[C@@H](CO)O[C@H]4O)=CC3=O)[C@@H](C)CC[C@]12C | 11.5 ppm | 38% | 6.25 µg/mL (≈ 12.8 µM)
